Experiments:
Botrytis cinerea = experiment: Test Example B: Gray mold on tomato; conditions: for pest or weed control at 250 µg/mL / pest or weed control at 250 ppm: Botrytis cinerea, in Solanum lycopersicum, topical, read-out: Test B control value; for Test B control value class: Gray mold on tomato, class of control value
Magnaporthe grisea = experiment: whole plant or invertebrate; assay type: in vivo; conditions: for pest or weed control at 250 µg/mL / pest or weed control at 250 ppm: Pyricularia oryzae, in Oryza sativa, read-out: Test A control value; for Test A control value class: Blast on rice, class of control value
Phytophthora infestans = experiment: whole plant or invertebrate; assay type: in vivo; conditions: for pest or weed control at 250 µg/mL / pest or weed control at 250 ppm: Phytophthora infestans, in Solanum lycopersicum, topical, read-out: Test F control value; for Test F control value class: Late blight on tomato, class of control value
[1] = test system: Colletotrichum orbiculare; experiment: Test Example H: Anthracnose on cucumber; conditions: for pest or weed control at 250 ppm: Colletotrichum orbiculare, in Cucumis sativus, topical, 144 h, read-out: Test H control value; for Test H control value class: Anthracnose on cucumber (Sagami Hanjiro), 250 ppm spray, 2.5 ml/pot, assessed 6 to 10 days after inoculation
Puccinia recondita = experiment: Test Example E: Brown rust on wheat; assay type: in vivo; conditions: for pest or weed control at 250 µg/mL / pest or weed control at 250 ppm: Puccinia recondita, topical; for pest or weed control at 250 µg/mL / Test E control value class: Brown rust on wheat; for pest or weed control at 250 µg/mL: control value class, read-out: Test E control value; for pest or weed control at 250 ppm: 250 ppm drug solution sprayed on test plant; for Test E control value class: class of control value
Plasmopara viticola = experiment: Test Example G: Downy mildew on vine; conditions: for pest or weed control at 250 ppm: Plasmopara viticola, topical, 168 h, read-out: Test G control value; for Test G control value class: Downy mildew on vine (Neomuscat), 250 ppm spray, 2.5 ml/pot, assessed 7 to 10 days after inoculation
[2] = test system: Blumeria graminis f. sp. hordei; experiment: Test Example D: Powdery mildew on barley; conditions: for pest or weed control at 250 µg/mL / pest or weed control at 250 ppm: Blumeria graminis, in Hordeum vulgare, topical, read-out: Test D control value; for Test D control value class: Powdery mildew on barley, class of control value
Alternaia brassicicola = experiment: Test Example C: Alternaria sooty spot on cabbage; assay type: in vivo; conditions: for pest or weed control at 250 µg/mL: Brassica oleracea, control value class, read-out: Test C control value; for pest or weed control at 250 µg/mL / pest or weed control at 250 ppm: topical; for pest or weed control at 250 µg/mL / Test C control value class: Alternaria sooty spot on cabbage; for pest or weed control at 250 ppm: 250 ppm drug solution sprayed on test plant; for Test C control value class: class of control value
From the text: Seeds of a test plant (cabbage variety: Shikidori) were planted and cultivated until the cotyledons extended.
<Control Value> Control value=100{1−(n/3)}

SMILES	pest or weed control at 250 µg/mL (Botrytis cinerea) [%]	pest or weed control at 250 µg/mL (Magnaporthe grisea) [%]	pest or weed control at 250 µg/mL (Phytophthora infestans) [%]	pest or weed control at 250 ppm [1] [%]	pest or weed control at 250 µg/mL (Puccinia recondita) [%]	pest or weed control at 250 ppm (Plasmopara viticola) [%]	pest or weed control at 250 µg/mL [2] [%]	pest or weed control at 250 µg/mL (Alternaia brassicicola) [%]	Test B control value class (Botrytis cinerea)	Test A control value class (Magnaporthe grisea)	Test F control value class (Phytophthora infestans)	Test H control value class [1]	Test E control value class (Puccinia recondita)	Test G control value class (Plasmopara viticola)	Test D control value class [2]	Test C control value class (Alternaia brassicicola)	other results
CCn1c(-c2c(F)cccc2F)c(C(C)(OC)C(C)C)cc(Cl)c1=O (centres unmarked) [Compound No. 187, 3-chloro-6-(2,6-difluorophenyl)-1-ethyl-5-(2-methoxy-3-methylbutan-2-yl)pyridin-2(1H)-one]	> 50	> 50	< 50	> 50	> 50	> 50	> 50	> 50									
CCn1c(-c2c(F)cc(F)cc2F)c(C=O)cc(Cl)c1=O [Compound No. 289, 5-chloro-1-ethyl-6-oxo-2-(2,4,6-trifluorophenyl)-1,6-dihydropyridine-3-carbaldehyde]	> 50	< 50	< 50	> 50	> 50	< 50	< 50	> 50									
CCn1c(-c2ccc(F)cc2Cl)c(C=C(C)C)cc(Cl)c1=O [Compound No. 300, 3-chloro-6-(2-chloro-4-fluorophenyl)-1-ethyl-5-(2-methyl-1-propenyl)pyridin-2(1H)-one]	> 50	> 50	< 50	> 50	> 50	< 50	> 50	> 50									
CCCc1cc(Br)c(=O)n(C)c1-c1ccc(F)cc1Cl [Compound No. 333, 3-bromo-6-(2-chloro-4-fluorophenyl)-1-methyl-5-propylpyridin-2(1H)-one]	> 50	> 50	< 50	> 50	> 50	< 50	< 50	> 50									
CCCc1cc(C)c(=O)n(C)c1-c1ccc(F)cc1Cl [Compound No. 339, 6-(2-chloro-4-fluorophenyl)-1,3-dimethyl-5-propylpyridin-2(1H)-one]	> 50	> 50	< 50	> 50	> 50	> 50	> 50	< 50									
CCn1c(-c2c(F)cc(F)cc2F)c(C(O)C(F)(F)F)cc(Cl)c1=O (centres unmarked) [Compound No. 515, 3-chloro-1-ethyl-5-(2,2,2-trifluoro-1-hydroxyethyl)-6-(2,4,6-trifluorophenyl)pyridin-2(1H)-one]				> 50		> 50											pest or weed control at 250 ppm (Botrytis cinerea): > 50%; pest or weed control at 250 ppm (Magnaporthe grisea): > 50%; pest or weed control at 250 ppm (Phytophthora infestans): < 50%; pest or weed control at 250 ppm (Puccinia recondita): > 50%; pest or weed control at 250 ppm [2]: < 50%; pest or weed control at 250 ppm (Alternaia brassicicola): < 50%
CCn1c(-c2c(F)cc(F)cc2F)c(C(OC)C(F)(F)F)cc(Cl)c1=O (centres unmarked) [Compound No. 516, 3-Chloro-1-ethyl-5-(2,2,2-trifluoro-1-methoxyethyl)-6-(2,4,6-trifluorophenyl)pyridin-2(1H)-one]				> 50		> 50											pest or weed control at 250 ppm (Botrytis cinerea): > 50%; pest or weed control at 250 ppm (Magnaporthe grisea): > 50%; pest or weed control at 250 ppm (Phytophthora infestans): < 50%; pest or weed control at 250 ppm (Puccinia recondita): > 50%; pest or weed control at 250 ppm [2]: > 50%; pest or weed control at 250 ppm (Alternaia brassicicola): > 50%
CCn1c(-c2c(F)cc(OC)cc2F)c(C(OC)C(F)(F)F)cc(Cl)c1=O (centres unmarked) [Compound No. 518, 3-chloro-6-(2,6-difluoro-4-methoxyphenyl)-1-ethyl-5-(2,2,2-trifluoro-1-methoxyethyl)pyridin-2(1H)-one]				> 50		< 50											pest or weed control at 250 ppm (Botrytis cinerea): > 50%; pest or weed control at 250 ppm (Magnaporthe grisea): > 50%; pest or weed control at 250 ppm (Phytophthora infestans): < 50%; pest or weed control at 250 ppm (Puccinia recondita): > 50%; pest or weed control at 250 ppm [2]: > 50%; pest or weed control at 250 ppm (Alternaia brassicicola): > 50%
Cc1ccc(=O)n(C)c1-c1c(F)cccc1F [compound 3]									L (50% or less control value)	L (50% or less control value)	L (50% or less control value)	L (50% or less control value)	L (50% or less control value)	L (50% or less control value)	L (50% or less control value)	H (more than 50% control value)	
Cc1cc(Cl)c(=O)n(C)c1-c1c(F)cccc1F [compound 4]									L (50% or less control value)	H (more than 50% control value)	H (more than 50% control value)	L (50% or less control value)	L (50% or less control value)	L (50% or less control value)	L (50% or less control value)	H (more than 50% control value)	
CCn1c(-c2c(F)cccc2F)c(C(C)C)ccc1=O [compound 5]									H (more than 50% control value)	H (more than 50% control value)	L (50% or less control value)	H (more than 50% control value)	H (more than 50% control value)	L (50% or less control value)	H (more than 50% control value)	H (more than 50% control value)	
CCn1c(-c2c(F)cccc2F)c(C(C)C)cc(Cl)c1=O [compound 6]									H (more than 50% control value)	H (more than 50% control value)	L (50% or less control value)	H (more than 50% control value)	H (more than 50% control value)	L (50% or less control value)	H (more than 50% control value)	H (more than 50% control value)	
CCn1c(-c2c(F)cc(F)cc2F)c(C(C)C)cc(Br)c1=O [compound 9]									H (more than 50% control value)	H (more than 50% control value)	L (50% or less control value)	H (more than 50% control value)	H (more than 50% control value)	H (more than 50% control value)	H (more than 50% control value)	H (more than 50% control value)	
CCn1c(-c2c(F)cc(OC)cc2F)c(C(C)C)cc(Br)c1=O [compound 12]									H (more than 50% control value)	H (more than 50% control value)	L (50% or less control value)	H (more than 50% control value)	H (more than 50% control value)	H (more than 50% control value)	H (more than 50% control value)	H (more than 50% control value)	
CC(C)c1ccc(=O)n(C)c1-c1c(F)cc(F)cc1F [compound 13]									H (more than 50% control value)	H (more than 50% control value)	L (50% or less control value)	L (50% or less control value)	L (50% or less control value)	L (50% or less control value)	H (more than 50% control value)	L (50% or less control value)	
COc1cc(F)c(-c2c(C(C)C)ccc(=O)n2C)c(F)c1 [compound 14]									H (more than 50% control value)	H (more than 50% control value)	H (more than 50% control value)	H (more than 50% control value)	H (more than 50% control value)	L (50% or less control value)	H (more than 50% control value)	H (more than 50% control value)	

Reference: US11147272B2, “Pyridone compounds and agricultural and horticultural fungicides comprising the same as active ingredients” (MITSUI CHEMICALS AGRO, INC., priority 2017, dated 2021)
